The test system of test [1] is BJ. In words: BJ-TERT-LT-ST fibroblast viability loss – cell-based, RAS-independent, luminescence, dose response (AID 1935).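 Further: BJ fibroblasts immortalized with TERT plus LT and ST oncogenes.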 In kind it is functional. The settings on record: Homo sapiens.
The nature of test [2]: DRD fibroblast viability loss – cell-based, non-viral oncogenic, luminescence, dose response (AID 1934). In kind it is functional. The settings on record: Homo sapiens.
Test [3] concerns the target T1, Streptokinase A (Streptococcus pyogenes serotype M1, UniProt P10520).
T1 sequence (P10520 whole entry): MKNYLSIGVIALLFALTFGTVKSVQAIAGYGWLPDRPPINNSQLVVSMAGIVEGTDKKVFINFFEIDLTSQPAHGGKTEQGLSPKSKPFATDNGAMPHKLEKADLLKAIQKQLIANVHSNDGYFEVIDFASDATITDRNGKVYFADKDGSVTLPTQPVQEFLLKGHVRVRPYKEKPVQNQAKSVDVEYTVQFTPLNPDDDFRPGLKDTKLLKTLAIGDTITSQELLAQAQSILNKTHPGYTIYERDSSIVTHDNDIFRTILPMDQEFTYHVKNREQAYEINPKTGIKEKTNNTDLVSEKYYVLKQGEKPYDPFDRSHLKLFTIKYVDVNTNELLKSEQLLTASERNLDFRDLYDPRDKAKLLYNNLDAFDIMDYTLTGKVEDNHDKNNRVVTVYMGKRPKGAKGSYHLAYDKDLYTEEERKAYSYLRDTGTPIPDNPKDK
The test can be described thus: viability-normalized secreted streptokinase activity reduction – plasminogen activation absorbance, OD405, dose response (AID 1914).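 Further: secreted streptokinase activity via plasminogen activation per viability signal from cell pellet.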 Type of test: functional, Streptococcus pyogenes M1 GAS.

Test [4] concerns the target T2, Type-1 angiotensin II receptor (Homo sapiens, UniProt P30556).
T2 sequence (P30556 whole entry): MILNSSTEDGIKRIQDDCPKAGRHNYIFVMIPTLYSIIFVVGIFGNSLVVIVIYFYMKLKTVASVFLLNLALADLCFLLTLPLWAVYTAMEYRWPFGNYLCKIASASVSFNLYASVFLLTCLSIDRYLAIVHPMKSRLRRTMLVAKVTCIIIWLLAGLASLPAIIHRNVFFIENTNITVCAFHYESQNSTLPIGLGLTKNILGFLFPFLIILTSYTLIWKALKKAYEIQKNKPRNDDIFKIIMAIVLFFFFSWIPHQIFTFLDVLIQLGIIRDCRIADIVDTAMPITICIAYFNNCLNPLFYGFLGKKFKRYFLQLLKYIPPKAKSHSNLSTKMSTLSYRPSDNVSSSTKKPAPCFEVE
In words: antagonism of angiotensin II type 1 receptor – cell-based, uHTS hits, selectivity assay for APJ receptor antagonist project, dose response (AID 463214).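 Further: antagonist potency against angiotensin II stimulated AT1 response.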 Type of test: functional.

Test [5] is described as follows: HEK-293T viability loss after treatment – luminescence, T-cell screen hits, cytotoxicity control for TCR NF-kB inhibitor project, dose response (AID 489026).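 Further: cells exposed to compound about 14 hours before the viability readout.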 In kind it is functional, cell-based.
For test [6], the target named is Beta-galactosidase (Escherichia coli, UniProt Q8VNN2). The test can be described thus: PubChem AID 485352. In kind it is functional.
For test [7], the system named is BJ. The test can be described thus: cells. In kind it is functional, cell-based. The settings on record: Homo sapiens.
The subject of test [8] is Streptococcus sp. 'group A'. The test can be described thus: Streptococcus pyogenes SK(-)GAS viability under kanamycin – luminescence, BacTiterGlo, confirmation, counter-screen for streptokinase expression inhibitor project, dose response (AID 1900). In kind it is functional, organism-based.
Test [9] has as its system BJ. In words: growth inhibition of engineered Ras-driven BJ cells – cell-based, alamar blue fluorescence, cherrypicked samples, dose response (AID 2631).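 Further: confirmatory dose-response assay in RAS-dependent BJ fibroblasts engineered with TERT, LT and ST, with cytotoxicity read by fluorescence.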 In kind it is functional. The settings on record: Homo sapiens. On the technique in general: The colour change of resazurin is a common sign of viable cells or microbes.
Test [10] deals with BJ. In words: BJ-TERT fibroblast viability loss – cell-based, RAS-independent, luminescence, dose response (AID 1933). The settings on record: Homo sapiens. In kind it is functional.
Test [11] concerns Streptococcus. In words: GAS UMAA2166 growth inhibition – luminescence, BacTiterGlo, counter-screen for streptokinase expression inhibitor project, dose response (AID 1915).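 Further: potency for reduction of bacterial viability or growth.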 Type of test: functional, organism-based. (In general: The purpose of a counterscreen is to sort out artefacts and off-target activity.)
The nature of test [12]: viability loss in HepG2 hepatoma cells – cell-based, ATP luminescence, cherry-pick, activator set 2, cytotoxicity control, dose response (AID 1053143). Type of test: functional.
The target in test [13] is DNA dC->dU-editing enzyme APOBEC-3A (Homo sapiens, UniProt P31941). In words: Dose Response confirmation of small molecule APOBEC3A DNA Deaminase Inhibitors via a fluorescence-based single-stranded DNA deaminase assay. [Related pubchem assays (depositor defined):AID493011, AID493024]. In kind it is functional.
Test [14] deals with T3, Beta-adrenergic receptor kinase 1 (Homo sapiens, UniProt P25098).
T3 sequence (P25098 whole entry): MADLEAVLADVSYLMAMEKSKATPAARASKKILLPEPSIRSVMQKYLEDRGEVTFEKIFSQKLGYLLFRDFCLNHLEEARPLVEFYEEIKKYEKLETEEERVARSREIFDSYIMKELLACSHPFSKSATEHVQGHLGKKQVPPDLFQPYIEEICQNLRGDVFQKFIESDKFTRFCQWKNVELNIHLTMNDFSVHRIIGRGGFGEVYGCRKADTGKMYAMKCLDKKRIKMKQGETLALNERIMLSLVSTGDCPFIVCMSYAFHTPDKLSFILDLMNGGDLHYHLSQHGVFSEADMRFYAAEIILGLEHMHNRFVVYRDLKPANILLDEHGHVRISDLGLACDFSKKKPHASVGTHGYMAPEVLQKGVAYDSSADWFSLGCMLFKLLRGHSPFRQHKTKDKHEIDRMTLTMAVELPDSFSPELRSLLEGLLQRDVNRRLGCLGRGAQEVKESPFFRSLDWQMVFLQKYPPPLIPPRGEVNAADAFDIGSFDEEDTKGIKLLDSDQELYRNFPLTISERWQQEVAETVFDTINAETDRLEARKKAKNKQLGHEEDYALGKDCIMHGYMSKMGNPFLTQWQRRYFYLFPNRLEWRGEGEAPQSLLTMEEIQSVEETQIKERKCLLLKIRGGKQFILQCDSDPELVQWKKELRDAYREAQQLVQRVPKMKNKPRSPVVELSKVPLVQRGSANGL
The test can be described thus: aptamer displacement from bead-bound GRK2 – biochemical, cherry pick 1, bead flow cytometry, dose response (AID 504500). For orientation: Flow cytometry measures light scatter and fluorescence of single cells or particles in a stream.

Test [15] addresses Estrogen receptor beta (Homo sapiens, UniProt Q92731).
The target of test [16] is T3, Beta-adrenergic receptor kinase 1. In words: blockers of aptamer binding to GRK2 – biochemical, flow cytometry beads, FAM-aptamer, powder set 1, dose response (AID 588720).
The target of test [17] is DNA dC->dU-editing enzyme APOBEC-3G (Homo sapiens, UniProt Q9HC16). Type of test: functional.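 Further: Dose-response counterscreen measuring inhibition of APOBEC3G DNA deaminase activity, run while confirming APOBEC3A inhibitors.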
Test [18] has as its target DNA topoisomerase (Yersinia pestis, UniProt A0A2S9PM60). The test can be described thus: Yersinia topoisomerase I cleavage product accumulation – biochemical, cherry-pick, dose response (AID 588525).
Test [19] concerns Jurkat. In words: SAR Analysis of small molecule inhibitors of T-cell specific antigen receptor-induced NF-kB activation in a Jurkat cell line using a luminescence assay - Set 2. [Related pubchem assays (depositor defined):AID435003, AID435012, AID465]. In kind it is functional, cell-based. The settings on record: Homo sapiens.
Test [20] concerns HEK293. In words: SAR Analysis of small molecule inhibitors of T-cell specific antigen receptor-induced NF-kB activation in a HEK-293T cell line using a luminescence assay - Set 2. [Related pubchem assays (depositor defined):AID435003, AID435012, AID489026]. The settings on record: Homo sapiens. Type of test: functional, cell-based.
Test [21] relates to HEK293. The test can be described thus: HEK293T cell viability loss, resazurin readout – resazurin fluorescence, cytotoxicity control for NF-kB activator project, SAR follow-up (AID 493251). Type of test: functional, cell-based. The settings on record: Homo sapiens.
In test [22] the test system is INS1. The test can be described thus: INS-1E mitochondrial potential rescue under cytokines – cell-based, JC-1 fluorescence ratio, dry powder, dose response (AID 488931). Type of test: functional. The settings on record: Rattus norvegicus.
In test [23] the test system is INS1. The test can be described thus: INS-1E mitochondrial potential loss inhibitors – cell-based, JC-1 fluorescence, dry powder, set 2, dose response (AID 488867). In kind it is functional. The settings on record: Rattus norvegicus.
The target of test [24] is T4, Phospholipase D1 (Homo sapiens, UniProt Q13393).
T4 sequence (Q13393 whole entry): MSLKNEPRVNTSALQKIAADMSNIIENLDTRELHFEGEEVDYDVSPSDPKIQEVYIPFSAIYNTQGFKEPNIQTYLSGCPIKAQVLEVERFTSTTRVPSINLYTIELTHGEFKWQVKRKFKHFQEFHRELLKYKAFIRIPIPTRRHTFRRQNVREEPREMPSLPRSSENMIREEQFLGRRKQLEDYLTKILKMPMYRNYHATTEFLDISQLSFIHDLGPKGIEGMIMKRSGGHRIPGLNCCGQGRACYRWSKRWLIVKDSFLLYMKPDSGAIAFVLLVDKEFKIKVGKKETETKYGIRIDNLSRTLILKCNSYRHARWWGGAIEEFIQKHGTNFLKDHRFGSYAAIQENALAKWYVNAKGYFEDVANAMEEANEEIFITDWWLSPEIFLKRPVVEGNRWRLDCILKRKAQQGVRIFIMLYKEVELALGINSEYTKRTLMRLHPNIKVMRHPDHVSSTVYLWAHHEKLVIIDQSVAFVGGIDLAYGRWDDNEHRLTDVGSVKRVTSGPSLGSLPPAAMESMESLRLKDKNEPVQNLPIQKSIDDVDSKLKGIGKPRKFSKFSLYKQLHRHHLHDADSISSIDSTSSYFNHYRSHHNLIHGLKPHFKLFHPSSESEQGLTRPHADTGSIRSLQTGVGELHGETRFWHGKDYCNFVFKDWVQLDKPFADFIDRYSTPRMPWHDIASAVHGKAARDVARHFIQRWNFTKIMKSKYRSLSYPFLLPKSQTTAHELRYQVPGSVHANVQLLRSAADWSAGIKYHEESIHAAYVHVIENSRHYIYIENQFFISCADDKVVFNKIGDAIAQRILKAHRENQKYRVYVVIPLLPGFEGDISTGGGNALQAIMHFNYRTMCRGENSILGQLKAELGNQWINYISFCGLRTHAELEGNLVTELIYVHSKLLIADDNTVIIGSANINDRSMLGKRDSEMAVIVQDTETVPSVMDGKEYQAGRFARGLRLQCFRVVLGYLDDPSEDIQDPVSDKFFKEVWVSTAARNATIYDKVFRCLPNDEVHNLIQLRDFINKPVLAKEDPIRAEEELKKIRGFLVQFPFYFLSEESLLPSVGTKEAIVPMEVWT
The test can be described thus: cellular phospholipase D1 inhibition IC50 – cell-based, dose response (AID 602151).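 Further: cellular PLD1 assay in Calu-1 cells stimulated with PMA.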 In kind it is functional.

Test [25] concerns the target Phospholipase D2 (Homo sapiens, UniProt O14939). The test can be described thus: cellular phospholipase D2 inhibition IC50 – cell-based, dose response (AID 602147).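 Further: cellular assay in HEK293 cells overexpressing GFP-tagged PLD2.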 In kind it is functional.

The source made the active and inactive calls.

Sequence of DNA topoisomerase (A0A2S9PM60 whole entry): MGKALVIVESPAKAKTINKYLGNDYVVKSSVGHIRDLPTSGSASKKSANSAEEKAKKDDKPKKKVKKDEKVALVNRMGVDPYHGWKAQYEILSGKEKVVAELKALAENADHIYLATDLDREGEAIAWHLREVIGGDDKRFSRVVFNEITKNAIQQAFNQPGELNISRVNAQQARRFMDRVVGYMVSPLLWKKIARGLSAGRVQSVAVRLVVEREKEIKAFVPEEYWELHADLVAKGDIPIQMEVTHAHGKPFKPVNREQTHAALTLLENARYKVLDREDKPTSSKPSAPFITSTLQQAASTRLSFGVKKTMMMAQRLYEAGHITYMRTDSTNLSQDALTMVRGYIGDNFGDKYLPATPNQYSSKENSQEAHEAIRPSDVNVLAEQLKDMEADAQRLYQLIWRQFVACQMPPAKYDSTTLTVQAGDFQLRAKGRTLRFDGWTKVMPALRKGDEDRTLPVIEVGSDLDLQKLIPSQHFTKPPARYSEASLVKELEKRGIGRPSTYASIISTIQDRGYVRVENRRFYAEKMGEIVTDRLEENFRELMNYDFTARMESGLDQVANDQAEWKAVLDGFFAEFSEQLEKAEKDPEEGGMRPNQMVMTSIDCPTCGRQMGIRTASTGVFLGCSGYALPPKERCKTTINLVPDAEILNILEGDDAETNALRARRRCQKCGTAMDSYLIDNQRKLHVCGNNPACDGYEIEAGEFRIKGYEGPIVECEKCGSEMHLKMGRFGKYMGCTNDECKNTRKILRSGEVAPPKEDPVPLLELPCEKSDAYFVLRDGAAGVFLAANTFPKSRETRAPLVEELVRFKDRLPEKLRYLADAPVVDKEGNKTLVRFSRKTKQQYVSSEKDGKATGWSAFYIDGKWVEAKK
Sequence of DNA dC->dU-editing enzyme APOBEC-3G (Q9HC16 whole entry): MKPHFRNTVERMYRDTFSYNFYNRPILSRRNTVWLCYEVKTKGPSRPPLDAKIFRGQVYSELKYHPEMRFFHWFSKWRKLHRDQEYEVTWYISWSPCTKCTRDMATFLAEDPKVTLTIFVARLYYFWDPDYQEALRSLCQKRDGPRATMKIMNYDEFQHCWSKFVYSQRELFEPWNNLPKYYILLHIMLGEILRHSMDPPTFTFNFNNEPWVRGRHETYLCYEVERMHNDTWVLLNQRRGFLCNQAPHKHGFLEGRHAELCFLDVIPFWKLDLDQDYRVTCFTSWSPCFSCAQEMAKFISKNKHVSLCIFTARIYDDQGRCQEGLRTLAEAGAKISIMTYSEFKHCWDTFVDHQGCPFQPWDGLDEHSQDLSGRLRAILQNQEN
Sequence of Beta-galactosidase (Q8VNN2 whole entry): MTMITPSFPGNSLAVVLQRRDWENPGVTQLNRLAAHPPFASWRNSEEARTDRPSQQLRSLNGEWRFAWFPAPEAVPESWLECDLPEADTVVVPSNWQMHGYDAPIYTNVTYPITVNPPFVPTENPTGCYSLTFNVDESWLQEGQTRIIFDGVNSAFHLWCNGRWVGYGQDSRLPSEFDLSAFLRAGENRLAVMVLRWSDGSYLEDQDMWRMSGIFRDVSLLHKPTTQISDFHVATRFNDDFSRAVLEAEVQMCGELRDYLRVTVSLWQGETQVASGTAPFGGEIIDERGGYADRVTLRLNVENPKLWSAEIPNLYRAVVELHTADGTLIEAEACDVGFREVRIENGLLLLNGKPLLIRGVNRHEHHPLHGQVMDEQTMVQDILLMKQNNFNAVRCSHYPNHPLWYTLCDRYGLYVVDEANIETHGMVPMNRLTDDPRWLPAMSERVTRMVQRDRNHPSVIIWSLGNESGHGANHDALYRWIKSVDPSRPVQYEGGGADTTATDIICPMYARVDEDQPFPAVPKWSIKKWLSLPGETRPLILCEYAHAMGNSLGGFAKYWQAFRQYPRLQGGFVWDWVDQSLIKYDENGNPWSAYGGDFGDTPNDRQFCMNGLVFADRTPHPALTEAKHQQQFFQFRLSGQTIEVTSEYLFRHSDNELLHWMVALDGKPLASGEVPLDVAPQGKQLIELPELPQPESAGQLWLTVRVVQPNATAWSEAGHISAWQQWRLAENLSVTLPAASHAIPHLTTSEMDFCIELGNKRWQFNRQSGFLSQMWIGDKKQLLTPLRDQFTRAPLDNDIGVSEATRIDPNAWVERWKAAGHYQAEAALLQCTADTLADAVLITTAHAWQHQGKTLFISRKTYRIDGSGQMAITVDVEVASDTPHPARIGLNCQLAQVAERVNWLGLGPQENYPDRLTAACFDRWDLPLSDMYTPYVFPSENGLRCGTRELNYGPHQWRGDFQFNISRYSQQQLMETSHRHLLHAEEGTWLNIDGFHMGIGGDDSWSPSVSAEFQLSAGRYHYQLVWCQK
Sequence of Estrogen receptor beta (Q92731 whole entry): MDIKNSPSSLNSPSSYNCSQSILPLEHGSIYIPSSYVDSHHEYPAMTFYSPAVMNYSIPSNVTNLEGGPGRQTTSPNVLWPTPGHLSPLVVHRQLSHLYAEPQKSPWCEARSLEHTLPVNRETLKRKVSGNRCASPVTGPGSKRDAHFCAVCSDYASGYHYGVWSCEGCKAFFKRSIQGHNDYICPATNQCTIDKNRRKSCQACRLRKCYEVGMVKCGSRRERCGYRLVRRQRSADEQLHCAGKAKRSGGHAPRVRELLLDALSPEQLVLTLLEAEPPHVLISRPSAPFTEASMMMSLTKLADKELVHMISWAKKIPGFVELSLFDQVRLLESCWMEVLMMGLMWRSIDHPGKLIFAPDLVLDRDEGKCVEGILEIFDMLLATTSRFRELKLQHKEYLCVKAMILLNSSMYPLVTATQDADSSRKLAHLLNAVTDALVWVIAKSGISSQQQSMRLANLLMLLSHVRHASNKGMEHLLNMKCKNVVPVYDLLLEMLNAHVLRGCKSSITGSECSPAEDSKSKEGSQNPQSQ
Sequence of Phospholipase D2 (O14939 whole entry): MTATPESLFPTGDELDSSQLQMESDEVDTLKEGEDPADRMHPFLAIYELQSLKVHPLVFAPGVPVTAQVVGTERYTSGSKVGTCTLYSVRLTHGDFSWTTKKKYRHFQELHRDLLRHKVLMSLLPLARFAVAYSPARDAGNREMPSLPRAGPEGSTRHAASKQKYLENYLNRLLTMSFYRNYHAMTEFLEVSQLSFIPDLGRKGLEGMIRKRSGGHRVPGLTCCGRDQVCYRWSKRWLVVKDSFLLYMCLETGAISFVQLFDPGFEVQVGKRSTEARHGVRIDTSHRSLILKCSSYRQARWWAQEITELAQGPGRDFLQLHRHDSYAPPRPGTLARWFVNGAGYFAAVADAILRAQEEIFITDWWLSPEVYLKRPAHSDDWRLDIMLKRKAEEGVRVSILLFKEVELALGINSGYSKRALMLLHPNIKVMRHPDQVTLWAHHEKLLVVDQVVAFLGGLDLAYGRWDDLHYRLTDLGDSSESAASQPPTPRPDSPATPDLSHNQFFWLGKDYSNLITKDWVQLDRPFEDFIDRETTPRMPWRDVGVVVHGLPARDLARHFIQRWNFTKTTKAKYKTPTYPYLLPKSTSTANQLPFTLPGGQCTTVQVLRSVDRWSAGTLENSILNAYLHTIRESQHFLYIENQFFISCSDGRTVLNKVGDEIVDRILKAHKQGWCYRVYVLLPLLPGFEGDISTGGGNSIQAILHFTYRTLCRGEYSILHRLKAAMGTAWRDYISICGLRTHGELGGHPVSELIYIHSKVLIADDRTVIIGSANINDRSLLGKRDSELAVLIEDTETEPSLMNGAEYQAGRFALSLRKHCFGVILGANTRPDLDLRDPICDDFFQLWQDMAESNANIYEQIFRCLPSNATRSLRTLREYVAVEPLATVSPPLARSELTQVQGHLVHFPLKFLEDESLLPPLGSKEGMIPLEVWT
Sequence of DNA dC->dU-editing enzyme APOBEC-3A (P31941 whole entry): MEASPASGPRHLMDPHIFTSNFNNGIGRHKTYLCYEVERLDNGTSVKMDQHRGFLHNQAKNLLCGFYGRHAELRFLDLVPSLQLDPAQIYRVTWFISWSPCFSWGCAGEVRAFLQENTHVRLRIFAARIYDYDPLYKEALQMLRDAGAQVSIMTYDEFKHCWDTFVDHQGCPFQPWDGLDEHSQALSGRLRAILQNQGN

In the case of `COc1cc(/C=C/c2ccc3cccc(O)c3n2)cc(OC)c1OC`, the 50% effective concentration (EC50) in test [1] is 1.2 µM (inconclusive); in test [2] it was 1.5 µM (active); in [3], > 150 µM (not active); in [6], > 40 µM (inactive); in [7], 47.8 µM (inconclusive); in test [8], 2.28 µM (active). Also, the EC50 in test [9] was 2.96 µM (inconclusive); in test [10] it was 1.26 µM (active); in test [11] it was 15.6 µM (active). For the same molecule, the figures for the IC50 in test [4] and in test [5] were 6.2 µM (active) and > 80 µM (inactive), respectively. In test [12], the concentration at half-maximal activity (AC50) is 9.5 µM (active).

Take `Cc1cc(=O)[nH]c(SCC(=O)NCc2ccco2)n1`: the 50% inhibitory concentration (IC50) in [13] was 17.4 µM (active); in test [15], 6.27 µM (active); in test [17], 43.4 µM (active). In addition, the EC50 in test [14] is 22.1 µM (inactive); in test [16], 44.9 µM (active).

For the molecule `O=C(Nc1ccccc1Cl)OCC#CCOC(=O)Nc1ccccc1Cl`, in [18], the concentration at half-maximal activity (AC50) was 12.6 µM (active).

As to `COc1ccc(C(=O)Nc2ccc(NC(=O)c3cc4ccccc4o3)cc2)cc1Br`, the IC50 was > 79 µM (inactive) in [19], > 80 µM (inactive) in test [20] and > 80 µM (inactive) in test [21].

As for `COc1ccc(S(=O)(=O)N(C)C[C@@H]2Oc3c(NC(=O)Nc4cccc5ccccc45)cccc3C(=O)N([C@@H](C)CO)C[C@H]2C)cc1OC`, the AC50 in test [22] is 85 µM (active); in test [23], 116 µM (active).

Turning to `O=C(NCCN1CCC2(CC1)C(=O)NCN2c1cccc(F)c1)c1ccc2c(c1)C(=O)OC2=O`, the concentration for half-maximal inhibition (IC50) in test [24] was 5.55 µM (active); in test [25], 0.265 µM (active).

Usually EC50 stands for the concentration needed to bring the measured effect to its halfway point. In general, IC50 refers to the midpoint of a concentration-inhibition curve. By AC50 is commonly meant the midpoint of the concentration-response curve, whichever way the signal moves.

(Values after ChEMBL document CHEMBL1201862, “PubChem BioAssay data set” (2004).)
